Data published in article PMC8629322 (ACS chemical neuroscience, 2020).

T1: biotinylated RNA:GST-MSUT2 ZF (Homo sapiens, UniProt Q6PJT7)
T1 sequence (Q6PJT7 601-736): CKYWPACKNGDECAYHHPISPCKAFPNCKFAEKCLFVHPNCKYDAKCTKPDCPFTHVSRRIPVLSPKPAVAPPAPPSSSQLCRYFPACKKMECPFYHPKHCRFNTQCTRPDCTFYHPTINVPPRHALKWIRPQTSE

T2: PABPN1 (Homo sapiens, UniProt Q86U42)
T2 sequence (Q86U42 1-306): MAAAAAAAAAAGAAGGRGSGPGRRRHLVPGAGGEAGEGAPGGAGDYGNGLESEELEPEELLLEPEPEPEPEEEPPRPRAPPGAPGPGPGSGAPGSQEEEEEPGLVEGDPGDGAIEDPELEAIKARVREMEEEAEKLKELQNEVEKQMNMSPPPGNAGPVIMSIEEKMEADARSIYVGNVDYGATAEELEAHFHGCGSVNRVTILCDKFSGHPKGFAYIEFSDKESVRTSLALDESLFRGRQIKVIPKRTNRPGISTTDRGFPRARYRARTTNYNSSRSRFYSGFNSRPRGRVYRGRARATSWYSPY

T3: FAM-RNA:MSUT2 ZF complex (poly(A):MSUT2 RNA-protein interaction) (Homo sapiens, UniProt Q6PJT7)
T3 sequence (Q6PJT7 601-736): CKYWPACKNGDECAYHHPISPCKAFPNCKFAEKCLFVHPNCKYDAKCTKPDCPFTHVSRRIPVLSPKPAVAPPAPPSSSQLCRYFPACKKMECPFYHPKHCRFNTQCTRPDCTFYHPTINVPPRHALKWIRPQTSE

T4: MSUT2 ZF (CCCH domains only) (UniProt Q6PJT7 601-736)
T4 sequence: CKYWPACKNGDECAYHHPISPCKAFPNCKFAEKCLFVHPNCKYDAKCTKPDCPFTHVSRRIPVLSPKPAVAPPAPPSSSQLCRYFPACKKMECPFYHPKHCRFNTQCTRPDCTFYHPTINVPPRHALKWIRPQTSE


Tests used:
[1] = molecular target: T1, biotinylated RNA:GST-MSUT2 ZF; test: AlphaScreen orthogonal poly; assay type: binding; conditions: for inhibition activity by AlphaScreen: dose-response, 50 nM biotinylated RNA, 50 nM GST-MSUT2
PABPN1 = molecular target: T2, PABPN1; test: PABPN1 fluorescence polarization counter screen; assay type: binding
Cell viability assay = conditions: human, HEK293 cells
[2] = cited from earlier work
[3] = molecular target: T3, FAM-RNA:MSUT2 ZF complex (poly(A):MSUT2 RNA-protein interaction); test: Fluorescence polarization assay of FAM-poly; assay type: binding
poly(A) = conditions: cited from earlier work
[4] = test system: albumin and α1-acid glycoprotein in the plasma; conditions: cited from earlier work
[5] = test system: hippocampus neuronal loss; conditions: rat model of chronic cerebral hypoperfusion; cited from earlier work
efflux transporters = conditions: cited from earlier work
[6] = molecular target: T4, MSUT2 ZF (CCCH domains only); test: competition

Molecule | inhibition activity by AlphaScreen [1] | IC50 (PABPN1) [µM] | IC50 [3] [µM] | further results
CNCC[C@H](Oc1cccc2ccccc12)c1cccs1 [duloxetine] | dose-dependent inhibition activity | 4.98 |  | bound to albumin and α1-acid glycoprotein in the plasma [4]: ~ 90%; concentration range of inhibition measured by AS ([1]; over a single log unit): 1.0 to 10 µM; viability at 72 h (Cell viability assay): > 90%; penetration into cerebral spinal fluid [2]: crosses into cerebral spinal fluid at a much lower rate than other antidepressants; concentration range of inhibitory response in FP assay ([3]; acted over 4 log units): 0.01 to 10 µM; neuronal loss in the hippocampus [5]: attenuated neuronal loss in the hippocampus
CN1C2CCCC1CC(NC(=O)c1nn(C)c3ccccc13)C2 (centres unmarked) [granisetron] |  | 8.65 | 0.306 | 
CC(C)(C)NC(=O)[C@@H]1CN(Cc2cccnc2)CCN1C[C@@H](O)C[C@@H](Cc1ccccc1)C(=O)N[C@H]1c2ccccc2C[C@H]1O [indinavir] |  | 35.8 | 0.247 | 
CC(C)(C)NC(=O)[C@@H]1C[C@@H]2CCCC[C@@H]2CN1C[C@@H](O)[C@H](Cc1ccccc1)NC(=O)[C@H](CC(N)=O)NC(=O)c1ccc2ccccc2n1 [saquinavir] | dose-dependent inhibition activity | 0.617 |  | viability at 72 h, 40 µM (Cell viability assay): 65%; brain penetrance [2]: low brain penetrance; efflux transporter substrate (efflux transporters): substrate of efflux transporters
AAAAAAAAAAAAAAA (ssRNA) [unlabeled poly(A)15 RNA] |  |  |  | IC50 [6]: 0.29 µM

The remaining molecules from weak to strong by IC50 (PABPN1), led by results:

inhibition activity by AlphaScreen [1] | IC50 (PABPN1) [µM] | IC50 [3] [µM] | Molecule | further results
dose-dependent inhibition activity | 23 | 0.731 | CC(C)/N=c1\cc2n(-c3ccc(Cl)cc3)c3ccccc3nc-2cc1Nc1ccc(Cl)cc1 [clofazimine] | viability at 72 h (Cell viability assay): > 90%; crossing of the blood-brain barrier [2]: unable to cross the blood-brain barrier; interaction with poly(A) (poly(A)): little interaction
 | 9.09 |  | OCCOCCN1CCN(C(c2ccccc2)c2ccc(Cl)cc2)CC1 (centres unmarked) [hydroxyzine] | 
 | 6.69 |  | CC(C(=O)O)c1ccc(-c2ccccc2)c(F)c1 (centres unmarked) [flurbiprofen] | 
